Among the test systems are RXF 393 renal; UACC-257 melanoma; A549 NSCLC; SK-MEL-28 melanoma; CCRF-CEM leukemia; UACC-62 melanoma; SNB-19 CNS; PC-3 prostate; A498 renal; SNB-75 CNS.
What all share (assay): NCI tumour cell line growth inhibition, 48 h

Molecules are shown by their SMILES.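 Method: 48-hour compound exposure of cells in 96-well plates, five concentrations, linear interpolation of endpoints. GI50 is the concentration that inhibits growth by half. TGI: concentration producing complete growth inhibition.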 Bounds are passed on as bounds.

`O=C(O)CC(CC(=O)O)n1cccc1`: the TGI in the assay on RXF 393 renal, with UACC-257 melanoma, in the assay on A549 NSCLC, in the assay with SK-MEL-28 melanoma, in the assay with CCRF-CEM leukemia and with UACC-62 melanoma was greater than 100 µM each time. The TGI with SNB-19 CNS, with PC-3 prostate and in the assay on A498 renal was greater than 100 µM throughout.
Regarding `Cc1ncc2c(n1)CCC1=C2OS(=O)(=O)CC1N(C)C` (configuration not stated), the TGI in the assay on UACC-257 melanoma, in the assay on A549 NSCLC, in the assay on SK-MEL-28 melanoma, in the assay with CCRF-CEM leukemia, in the assay with SNB-75 CNS and in the assay with UACC-62 melanoma was greater than 100 µM each time. In addition, the TGI in the assay with SNB-19 CNS, with PC-3 prostate and in the assay on A498 renal was greater than 100 µM throughout.
On to `CCOC(=O)c1nc2sc(Cl)cn2c1/C=N/N=C(N)N`, for which the GI50 in the assay with RXF 393 renal is 18.8 µM; with UACC-257 melanoma, 35.8 µM; with A549 NSCLC, 26.9 µM; in the assay on SK-MEL-28 melanoma it was 18.2 µM; in the assay on CCRF-CEM leukemia, 25.2 µM; with SNB-75 CNS, 27.9 µM. Further, the results for the GI50 in the assay with UACC-62 melanoma, in the assay on SNB-19 CNS and in the assay on PC-3 prostate were 17.6 µM, 30 µM and 24.4 µM, respectively. The TGI in the assay on RXF 393 renal was greater than 70.2 µM; in the assay on UACC-257 melanoma, greater than 86 µM; in the assay on A549 NSCLC it was greater than 58.3 µM; in the assay on SK-MEL-28 melanoma it was 51 µM; with CCRF-CEM leukemia, greater than 64.2 µM; in the assay with SNB-75 CNS, 68.8 µM. For the same molecule, the TGI with UACC-62 melanoma was 34.5 µM; with SNB-19 CNS, greater than 100 µM; in the assay with PC-3 prostate, greater than 56.8 µM.
Regarding `COc1cc2c(cc1OCCCN1CCN(CCCOc3cc4c(cc3OC)C(=O)N3C[C@H](F)C[C@H]3C=N4)CC1)N=C[C@@H]1C[C@@H](F)CN1C2=O`, the GI50 with UACC-257 melanoma is 0.127 µM; with SK-MEL-28 melanoma, 0.0713 µM; in the assay on CCRF-CEM leukemia, less than 0.01 µM; with SNB-75 CNS it was 0.0338 µM; in the assay on UACC-62 melanoma, 0.0223 µM; with SNB-19 CNS it was 0.758 µM. Further, the GI50 in the assay on PC-3 prostate is 0.0546 µM; in the assay with A498 renal, 0.0947 µM. Besides, the TGI in the assay with UACC-257 melanoma was 0.363 µM; with SK-MEL-28 melanoma, 0.343 µM; in the assay with CCRF-CEM leukemia it was 1.49 µM; in the assay with SNB-75 CNS it was 0.594 µM; in the assay with UACC-62 melanoma, 0.145 µM; in the assay with SNB-19 CNS, greater than 41.6 µM. The same molecule came in with a TGI in the assay with A498 renal of 0.38 µM.
On to `COc1ccc(C(=O)c2no[n+]([O-])c2C(=O)c2ccc(OC)cc2)cc1`, for which the GI50 with RXF 393 renal was 2.25 µM; in the assay with UACC-257 melanoma, 3.46 µM; with A549 NSCLC it was 17.2 µM; in the assay with SK-MEL-28 melanoma, 9.03 µM; with SNB-75 CNS it was 3.03 µM; in the assay with UACC-62 melanoma, 10.3 µM. Moreover, the results for the GI50 in the assay with SNB-19 CNS, with PC-3 prostate and in the assay on A498 renal were 42.2 µM, 5.21 µM and 15.6 µM, respectively. For the same molecule, the TGI was 5.93 µM in the assay on RXF 393 renal; 10.4 µM in the assay with UACC-257 melanoma; 34.4 µM with A549 NSCLC; 22.1 µM in the assay on SK-MEL-28 melanoma; 9.26 µM with SNB-75 CNS; 23.9 µM in the assay on UACC-62 melanoma. Also, the figures for the TGI in the assay with SNB-19 CNS, with PC-3 prostate and with A498 renal were greater than 100 µM, 16.8 µM and 29.2 µM, respectively.
As to `CCOC(=O)CCC(NC(=O)c1ccc(Oc2nc3cc(N)cc(N)c3nc2-c2ccccc2)cc1)C(=O)OCC` (configuration not stated), the GI50 was 43.9 µM with RXF 393 renal; 26.7 µM in the assay on UACC-257 melanoma; greater than 100 µM with A549 NSCLC; 14.3 µM with SK-MEL-28 melanoma; 12.4 µM with CCRF-CEM leukemia; 16.1 µM in the assay with UACC-62 melanoma. Further, the GI50 was 31.6 µM with SNB-19 CNS and 73.5 µM in the assay with PC-3 prostate. Further, the TGI is greater than 100 µM in the assay with RXF 393 renal; 55.1 µM in the assay on UACC-257 melanoma; greater than 100 µM in the assay with A549 NSCLC; 30.5 µM in the assay with SK-MEL-28 melanoma; greater than 100 µM with CCRF-CEM leukemia; 31 µM in the assay with UACC-62 melanoma. For the same molecule, the TGI with SNB-19 CNS and with PC-3 prostate was greater than 100 µM throughout.
`CN(COC(=O)C(C)(C)C)c1nc(N(C)COC(=O)C(C)(C)C)nc(N(C)COC(=O)C(C)(C)C)n1`: the TGI in the assay with RXF 393 renal is 41.9 µM; in the assay on UACC-257 melanoma, greater than 100 µM; in the assay on A549 NSCLC, greater than 100 µM; with SK-MEL-28 melanoma it was greater than 100 µM; with CCRF-CEM leukemia it was greater than 100 µM; in the assay with SNB-75 CNS, greater than 100 µM. Besides, the TGI in the assay with SNB-19 CNS, in the assay on PC-3 prostate and in the assay with A498 renal was greater than 100 µM each time.
For the molecule `COc1ccc(/C(=N/O)c2cc(F)c(F)c(OC)c2F)cc1O`, the GI50 is 1.06 µM with A549 NSCLC; 10.8 µM with SK-MEL-28 melanoma; 0.528 µM in the assay with CCRF-CEM leukemia; 0.309 µM in the assay with SNB-75 CNS; 0.827 µM in the assay on SNB-19 CNS; 0.565 µM in the assay with PC-3 prostate. Further, in the assay on A498 renal, the GI50 is 3.79 µM. Besides, the TGI in the assay on A549 NSCLC is greater than 100 µM; with SK-MEL-28 melanoma it was greater than 100 µM; in the assay with CCRF-CEM leukemia it was 35.2 µM; in the assay on SNB-75 CNS, greater than 100 µM; with SNB-19 CNS, greater than 100 µM; with PC-3 prostate, greater than 100 µM. In the assay with A498 renal, this molecule registered a TGI greater than 100 µM.
On to `O=C1CC[C@@H]2[C@H]3CCC(=O)c4c3c(c3cccc(O)c3c4O)O[C@@]23C(=O)c2cccc(O)c2C(O)=C13`, for which the GI50 with RXF 393 renal, in the assay with UACC-257 melanoma, with A549 NSCLC, with SK-MEL-28 melanoma, in the assay on SNB-75 CNS and in the assay with UACC-62 melanoma was greater than 100 µM each time. For the same molecule, the GI50 with SNB-19 CNS and in the assay on PC-3 prostate was greater than 100 µM throughout. Further, the TGI with RXF 393 renal, in the assay with UACC-257 melanoma, in the assay with A549 NSCLC, in the assay with SK-MEL-28 melanoma, with SNB-75 CNS and in the assay with UACC-62 melanoma was greater than 100 µM throughout. For the same molecule, the TGI in the assay with SNB-19 CNS and in the assay with PC-3 prostate was greater than 100 µM each time.
For the molecule `COc1cc(/C=C2\CC3C4CC=C5C[C@@H](N6CCCC6)CC[C@]5(C)C4CC[C@]3(C)[C@H]2OC(C)=O)ccc1OCCCn1ccnc1` (some centres not stated), the GI50 in the assay with RXF 393 renal is 0.704 µM; in the assay on UACC-257 melanoma, 2.29 µM; with A549 NSCLC, 2.79 µM; in the assay with SK-MEL-28 melanoma, 0.157 µM; in the assay with CCRF-CEM leukemia, 1.22 µM; in the assay on UACC-62 melanoma, 0.63 µM. Moreover, the figures for the GI50 with SNB-19 CNS, in the assay on PC-3 prostate and with A498 renal were 1.46 µM, 0.958 µM and 2.66 µM, respectively. Moreover, the TGI in the assay on RXF 393 renal was 2.08 µM; in the assay with UACC-257 melanoma, 5.27 µM; in the assay with A549 NSCLC it was 10.3 µM; in the assay with SK-MEL-28 melanoma, greater than 50 µM; in the assay with CCRF-CEM leukemia, 3.91 µM; with UACC-62 melanoma it was 2.26 µM. Besides, the TGI in the assay with SNB-19 CNS was greater than 50 µM; in the assay on PC-3 prostate, 8.41 µM; in the assay on A498 renal it was 5.18 µM.

The record behind these values is PubChem BioAssay (NCI).
